From PubChem BioAssay AID248 (DTP/NCI, 2004)
“And” between values parts separate entries of the source, which are not always exact repeats. Equal entries are not always repeated. Inconclusive results and toxic doses are left out.

Test system: L1210 leukemia ip in BDF1 mice, survival T/C
Experiment: NCI In Vivo Anticancer Drug Screen. Data for tumor model L1210 Leukemia (intraperitoneal) in B6D2F1 (BDF1) mice
Settings: higher = longer survival
Procedure, shortened: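 Mice bearing the transplanted tumor received compound or vehicle. Survival of the treated group was divided by that of the vehicle-treated control group to give the ratio.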

[1] = endpoint: mean survival time, dose: 1.56 mg/kg/injection, schedule: Q01DX009 (ip), vehicle: saline
[2] = endpoint: mean survival time, dose: 200.0 mg/kg/injection, schedule: Q01DX001 (ip), vehicle: saline
[3] = endpoint: mean survival time, dose: 100.0 mg/kg/injection, schedule: Q04DX003 (ip), vehicle: saline with Tween-80
[4] = endpoint: mean survival time, dose: 200.0 mg/kg/injection, schedule: Q04DX003 (ip), vehicle: saline with Tween-80
[5] = endpoint: mean survival time, dose: 400.0 mg/kg/injection, schedule: Q04DX003 (ip), vehicle: saline with Tween-80
[6] = endpoint: mean survival time, dose: 50.0 mg/kg/injection, schedule: Q01DX009 (ip), vehicle: saline
[7] = endpoint: mean survival time, dose: 100.0 mg/kg/injection, schedule: Q01DX009 (ip), vehicle: saline
[8] = endpoint: mean survival time, dose: 100.0 mg/kg/injection, schedule: Q01DX009 (ip), vehicle: saline with Tween-80
[9] = endpoint: mean survival time, dose: 200.0 mg/kg/injection, schedule: Q01DX009 (ip), vehicle: saline with Tween-80
[10] = endpoint: mean survival time, dose: 400.0 mg/kg/injection, schedule: Q01DX009 (ip), vehicle: saline with Tween-80
[11] = endpoint: mean survival time, dose: 100.0 mg/kg/injection, schedule: Q04DX002 (ip), vehicle: saline with Tween-80
[12] = endpoint: mean survival time, dose: 200.0 mg/kg/injection, schedule: Q04DX002 (ip), vehicle: saline with Tween-80
[13] = endpoint: mean survival time, dose: 400.0 mg/kg/injection, schedule: Q04DX002 (ip), vehicle: saline with Tween-80
[14] = endpoint: mean survival time, dose: 100.0 mg/kg/injection, schedule: Q01DX001 (ip), vehicle: carboxymethylcellulose (CMC)
[15] = endpoint: mean survival time, dose: 200.0 mg/kg/injection, schedule: Q01DX001 (ip), vehicle: carboxymethylcellulose (CMC)
[16] = endpoint: mean survival time, dose: 400.0 mg/kg/injection, schedule: Q01DX001 (ip), vehicle: carboxymethylcellulose (CMC)

[CH3][Sn]([CH3])([Br])[CH2]CCBr
T/C (endpoint: mean survival time, dose: 0.78 mg/kg/injection, schedule: Q01DX009 (ip), vehicle: saline): 100 % of control
T/C [1]: 100 % of control

CCC1CCCC1=O (stereo not given)
T/C (endpoint: mean survival time, dose: 50.0 mg/kg/injection, schedule: Q01DX001 (ip), vehicle: saline): 95 % of control
T/C [2]: 90 % of control

CC(C)c1nc(-c2ccccc2)c(-c2ccccc2)[nH]1
T/C [3]: 93 % of control
T/C [4]: 98 % of control
T/C [5]: 93 % of control

CC(=O)OC1C(CO)OC2C1OC1=NC(N)=NCN12 (stereo not given)
T/C [1]: 102 % of control and 119 % of control
T/C (endpoint: mean survival time, dose: 3.12 mg/kg/injection, schedule: Q01DX009 (ip), vehicle: saline): 102 % of control
T/C (endpoint: mean survival time, dose: 6.25 mg/kg/injection, schedule: Q01DX009 (ip), vehicle: saline): 95 % of control and 98 % of control
T/C (endpoint: mean survival time, dose: 12.5 mg/kg/injection, schedule: Q01DX009 (ip), vehicle: saline): 96 % of control and 98 % of control
T/C (endpoint: mean survival time, dose: 25.0 mg/kg/injection, schedule: Q01DX009 (ip), vehicle: saline): 96 % of control
T/C [6]: 100 % of control and 91 % of control
T/C [7]: 104 % of control and 91 % of control
T/C (endpoint: mean survival time, dose: 200.0 mg/kg/injection, schedule: Q01DX009 (ip), vehicle: saline): 107 % of control and 109 % of control

CC(C)(C)c1cccc(C(C)(C)C)c1OC(=O)NS(=O)(=O)c1ccccc1
T/C (endpoint: mean survival time, dose: 12.5 mg/kg/injection, schedule: Q01DX009 (ip), vehicle: acetone): 98 % of control
T/C (endpoint: mean survival time, dose: 25.0 mg/kg/injection, schedule: Q01DX009 (ip), vehicle: acetone): 94 % of control
T/C (endpoint: mean survival time, dose: 50.0 mg/kg/injection, schedule: Q01DX009 (ip), vehicle: acetone): 91 % of control
T/C (endpoint: mean survival time, dose: 75.0 mg/kg/injection, schedule: Q01DX009 (ip), vehicle: Klucel (hydroxypropylcellulose) (HPC)): 96 % of control
T/C (endpoint: mean survival time, dose: 115.0 mg/kg/injection, schedule: Q01DX009 (ip), vehicle: Klucel (hydroxypropylcellulose) (HPC)): 98 % of control

CCN(CC)c1ccc(NC(=O)Nc2ccccc2OC)cc1
T/C (endpoint: mean survival time, dose: 50.0 mg/kg/injection, schedule: Q01DX009 (ip), vehicle: saline with Tween-80): 103 % of control
T/C [8]: 93 % of control and 101 % of control
T/C [3]: 103 % of control
T/C [9]: 101 % of control
T/C [4]: 97 % of control
T/C [10]: 95 % of control
T/C [5]: 96 % of control

CN(C)CC1CCCCN1 (stereo not given)
T/C (endpoint: mean survival time, dose: 100.0 mg/kg/injection, schedule: Q04DX003 (ip), vehicle: saline): 93 % of control
T/C (endpoint: mean survival time, dose: 200.0 mg/kg/injection, schedule: Q04DX003 (ip), vehicle: saline): 97 % of control

Cl[Si](c1ccccc1)(c1ccccc1)c1ccc([Si](Cl)(c2ccccc2)c2ccccc2)cc1
T/C [11]: 87 % of control
T/C [12]: 92 % of control
T/C [13]: 96 % of control

CN(C)S(=O)(=O)c1ccc(NC(=O)C(Cl)Cl)cc1
T/C (endpoint: mean survival time, dose: 100.0 mg/kg/injection, schedule: Q01DX001 (ip), vehicle: other): 100 % of control
T/C [8]: 100 % of control
T/C (endpoint: mean survival time, dose: 100.0 mg/kg/injection, schedule: Q04DX003 (ip), vehicle: other): 103 % of control
T/C (endpoint: mean survival time, dose: 200.0 mg/kg/injection, schedule: Q01DX001 (ip), vehicle: other): 107 % of control
T/C [9]: 100 % of control
T/C (endpoint: mean survival time, dose: 200.0 mg/kg/injection, schedule: Q04DX003 (ip), vehicle: other): 101 % of control
T/C (endpoint: mean survival time, dose: 400.0 mg/kg/injection, schedule: Q01DX001 (ip), vehicle: other): 100 % of control
T/C [10]: 86 % of control
T/C (endpoint: mean survival time, dose: 400.0 mg/kg/injection, schedule: Q04DX003 (ip), vehicle: other): 101 % of control

COS(=O)(=O)c1ccc([N+](=O)[O-])cc1[N+](=O)[O-]
T/C (endpoint: mean survival time, dose: 100.0 mg/kg/injection, schedule: Q01DX001 (ip), vehicle: saline): 100 % of control
T/C [2]: 94 % of control
T/C (endpoint: mean survival time, dose: 400.0 mg/kg/injection, schedule: Q01DX001 (ip), vehicle: saline): 91 % of control

CC1OC(OC2CC(O)C3(CO)C4C(O)CC5(C)C(C6=CC(=O)OC6)CCC5(O)C4CCC3(O)C2)C(O)C(O)C1O (stereo not given)
T/C (endpoint: mean survival time, dose: 0.5 mg/kg/injection, schedule: Q01DX009 (ip), vehicle: saline): 100 % of control
T/C (endpoint: mean survival time, dose: 1.0 mg/kg/injection, schedule: Q01DX009 (ip), vehicle: saline): 121 % of control
T/C (endpoint: mean survival time, dose: 1.25 mg/kg/injection, schedule: Q01DX001 (ip), vehicle: saline): 100 % of control
T/C (endpoint: mean survival time, dose: 2.0 mg/kg/injection, schedule: Q01DX009 (ip), vehicle: saline): 113 % of control
T/C (endpoint: mean survival time, dose: 2.5 mg/kg/injection, schedule: Q01DX001 (ip), vehicle: saline): 104 % of control
T/C (endpoint: mean survival time, dose: 4.0 mg/kg/injection, schedule: Q01DX009 (ip), vehicle: saline): 106 % of control
T/C (endpoint: mean survival time, dose: 5.0 mg/kg/injection, schedule: Q01DX001 (ip), vehicle: saline): 101 % of control
T/C (endpoint: mean survival time, dose: 6.25 mg/kg/injection, schedule: Q01DX001 (ip), vehicle: saline): 105 % of control
T/C (endpoint: mean survival time, dose: 12.5 mg/kg/injection, schedule: Q01DX001 (ip), vehicle: saline): 106 % of control
T/C (endpoint: median survival time, dose: 1.0 mg/kg/injection, schedule: Q01DX005 (ip), vehicle: water): 105 % of control
T/C (endpoint: median survival time, dose: 2.0 mg/kg/injection, schedule: Q01DX005 (ip), vehicle: water): 104 % of control
T/C (endpoint: median survival time, dose: 4.0 mg/kg/injection, schedule: Q01DX005 (ip), vehicle: water): 109 % of control

NNc1c(Cl)c(F)c(Cl)c(F)c1Cl
T/C [14]: 104 % of control
T/C [15]: 97 % of control
T/C [16]: 104 % of control

O=S1(=O)Oc2c(Cl)cc(Cl)cc2S(=O)(=O)Oc2c(Cl)cc(Cl)cc21
T/C (endpoint: mean survival time, dose: 100.0 mg/kg/injection, schedule: Q01DX001 (ip), vehicle: Klucel (hydroxypropylcellulose) (HPC)): 105 % of control
T/C (endpoint: mean survival time, dose: 200.0 mg/kg/injection, schedule: Q01DX001 (ip), vehicle: Klucel (hydroxypropylcellulose) (HPC)): 105 % of control
T/C (endpoint: mean survival time, dose: 400.0 mg/kg/injection, schedule: Q01DX001 (ip), vehicle: Klucel (hydroxypropylcellulose) (HPC)): 98 % of control

O=C(COc1ccc(Cl)cc1C(=O)O)Nc1ccccc1
T/C (endpoint: mean survival time, dose: 100.0 mg/kg/injection, schedule: Q04DX003 (ip), vehicle: Klucel (hydroxypropylcellulose) (HPC)): 93 % of control
T/C (endpoint: mean survival time, dose: 200.0 mg/kg/injection, schedule: Q04DX003 (ip), vehicle: Klucel (hydroxypropylcellulose) (HPC)): 102 % of control
T/C (endpoint: mean survival time, dose: 400.0 mg/kg/injection, schedule: Q04DX003 (ip), vehicle: Klucel (hydroxypropylcellulose) (HPC)): 98 % of control

CCCC[N+](CCCC)=c1cc(-c2ccc(Cl)cc2)ss1
T/C (endpoint: mean survival time, dose: 100.0 mg/kg/injection, schedule: Q04DX003 (ip), vehicle: water): 95 % of control
T/C (endpoint: mean survival time, dose: 200.0 mg/kg/injection, schedule: Q04DX003 (ip), vehicle: water): 96 % of control

Clc1cccc(Cl)c1/C=N/N1CCN(/N=C/c2c(Cl)cccc2Cl)CC1
T/C [14]: 91 % of control
T/C [15]: 89 % of control
T/C [16]: 91 % of control

S=c1cccn[nH]1
T/C (endpoint: mean survival time, dose: 12.5 mg/kg/injection, schedule: Q01DX009 (ip), vehicle: other): 459 % of control
T/C (endpoint: mean survival time, dose: 25.0 mg/kg/injection, schedule: Q01DX009 (ip), vehicle: other): 459 % of control
T/C (endpoint: mean survival time, dose: 50.0 mg/kg/injection, schedule: Q01DX009 (ip), vehicle: other): 406 % of control
T/C (endpoint: mean survival time, dose: 59.0 mg/kg/injection, schedule: Q01DX009 (ip), vehicle: other): 93 % of control and 101 % of control
T/C (endpoint: mean survival time, dose: 89.0 mg/kg/injection, schedule: Q01DX009 (ip), vehicle: other): 96 % of control and 99 % of control
T/C (endpoint: mean survival time, dose: 100.0 mg/kg/injection, schedule: Q01DX009 (ip), vehicle: other): 341 % of control
T/C (endpoint: mean survival time, dose: 133.0 mg/kg/injection, schedule: Q01DX009 (ip), vehicle: other): 94 % of control and 100 % of control
T/C (endpoint: mean survival time, dose: 300.0 mg/kg/injection, schedule: Q01DX009 (ip), vehicle: other): 96 % of control and 90 % of control

C[CH2][Sn](/[CH]=C/C(C)(C)O)([CH2]C)[CH2]C
T/C [6]: 102 % of control
T/C [7]: 102 % of control

O=C(Nc1ccc(Cl)c(C(F)(F)F)c1)Oc1cccnc1
T/C (endpoint: mean survival time, dose: 25.0 mg/kg/injection, schedule: Q01DX009 (ip), vehicle: Klucel (hydroxypropylcellulose) (HPC)): 94 % of control
T/C (endpoint: mean survival time, dose: 100.0 mg/kg/injection, schedule: Q01DX009 (ip), vehicle: Klucel (hydroxypropylcellulose) (HPC)): 92 % of control and 93 % of control

Cc1cc(C)n2[nH]c(=O)cc2n1
T/C [11]: 98 % of control
T/C [12]: 104 % of control
T/C [13]: 106 % of control
